Results on one compound are retold here after US5663335A, “Immunosuppressive compounds and methods” (priority 1996, dated 1997).

This assay relates to murine thymocytes (IL-1β action). The assay can be described thus: Inhibition of IL-1 action: suppression of IL-1β + PHA stimulated thymocyte proliferation ((3H)-thymidine incorporation). It counts as cell-based, mouse (C3H/HeN). To be noted: IL-1β 0.08 ng/ml + PHA 10 μg/ml. As for the experimental part: The ability of the above compounds to suppress the cell-proliferative effect of IL-1β (O'Gara, 1990) was examined as described in Example 11. Mouse thymocytes in culture were stimulated with IL-1β in the presence of phytohemagglutinin (PHA) and increasing concentrations of triptolide (control) and triptolide derivatives. The cells were cultured for 72 hours, and during the last 18 hours, incubated with tritiated thymidine. DNA synthesis was assessed by measuring incorporation of radiolabeled thymidine. The results expressed in terms of IC50 (concentration effective to cause 50% suppression of proliferation) are shown in Table I.
Inhibition of IL-1 Action on Murine Thymocytes
C3H/HeN mouse thymocytes were prepared and the action of IL-1 together with PHA, which stimulate proliferation of thymocyte, was measured using standard techniques (O'Gara, 1990; Mishell, 1980). Three- to six-week old C3H/HeN male mice (Simonson Laboratory, Gilroy, Calif.) were sacrificed by CO2 inhalation. Thymi were removed, separated from adherent non-thymic tissue, homogenized in Hank's balanced salt solution (HBSS, Gibco) using a glass homogenizer, and centrifuged at 200×g for 10 minutes at 15° C. Following an additional wash in HBSS, the thymocytes were resuspended in RPMI 1640 medium containing 50 uM 2-mercaptoethanol, 2 mM glutamine, 1 mM sodium pyruvate, non-essential amino acids 100 U/ml penicillin, 100 μg/ml streptomycin, and 10% heat-inactivated fetal bovine serum.
Cells were cultured in round-bottom 96 well microtiter tissue culture plates, 6×10^5 cells per well, in a volume of 100 μl. Recombinant human IL-1β(R & D Systems #201-LB) together with Phytohemagglutinin P (PHA, Pharmacia) were added to the cells in volume of 25 μl per well to achieve a final concentration of 0.08 ng/ml and 10 μg/ml, respectively. Samples were dissolved in DMSO (10 mg/ml), then diluted in culture medium. […]
Plates were incubated at 37° C. in a 5% CO2 incubator for 72 hours. […] Cells were then harvested and counted. […]

Like-named read-outs stand apart in the source and are kept apart here.

Consider `CC(C)[C@]12O[C@H]1[C@@H]1O[C@]13[C@]1(O[C@H]1C[C@H]1C4=C(CC[C@@]13C)C(=O)OC4)[C@@H]2O` [Triptolide, triptolide], for which the IC50 was roughly 5 nM (72 hours, read-out: IC50, IL-1 assay); 1.9 ng/mL (Mus musculus, Thymocyte, 72 h, read-out: IC50 (concentration effective to cause 50% suppression of proliferation), IL-1 assay); 5.3 nM (Mus musculus, Thymocyte, 72 h, read-out: IC50, IL-1 assay).
